Where two headings read alike, the source gives them in different places.
Columns and labels:
H460 cells = experiment: Cell cycle distribution (flow cytometry); assay type: cell-based, human
NCI H460 xenograft = experiment: H460 xenograft mouse model, 150 mg/kg weekly with CDDP (Example 53); assay type: in vivo
Protocol: Female CB17/SCID mice (purchased from Charles River, Cambridge, Mass.), 7-8 weeks of age, were allowed to acclimatize for at least three days, and handled under pathogen-free conditions. Human non-small cell lung cell line NCI H460 was obtained from the American Type Culture Collection. The cell lines were cultured and harvested as described in Example 47 and inoculated at 3×10^6 cells/animal in the peritoneal subcutaneous space. When the tumors grew to an average volume of 100 mm^3, treatment was initiated in which groups of 10 mice received vehicle (Group 1), CDDP at 6 mg/kg (IV one time, Group 2), Compound 25 at 150 mg/kg in saline, once a week for two weeks (i.p., Group 3), or the combination of the two agents (Group 4).

[1] = system: rat (RLM) liver microsomal proteins; experiment: Metabolic stability in liver microsomal protein; assay type: in vitro ADME; details: 5 μM
CYP3A4 = CYP3A4 (Homo sapiens, UniProt P08684); experiment: in vitro
CYP3A4, sequence (P08684 whole entry): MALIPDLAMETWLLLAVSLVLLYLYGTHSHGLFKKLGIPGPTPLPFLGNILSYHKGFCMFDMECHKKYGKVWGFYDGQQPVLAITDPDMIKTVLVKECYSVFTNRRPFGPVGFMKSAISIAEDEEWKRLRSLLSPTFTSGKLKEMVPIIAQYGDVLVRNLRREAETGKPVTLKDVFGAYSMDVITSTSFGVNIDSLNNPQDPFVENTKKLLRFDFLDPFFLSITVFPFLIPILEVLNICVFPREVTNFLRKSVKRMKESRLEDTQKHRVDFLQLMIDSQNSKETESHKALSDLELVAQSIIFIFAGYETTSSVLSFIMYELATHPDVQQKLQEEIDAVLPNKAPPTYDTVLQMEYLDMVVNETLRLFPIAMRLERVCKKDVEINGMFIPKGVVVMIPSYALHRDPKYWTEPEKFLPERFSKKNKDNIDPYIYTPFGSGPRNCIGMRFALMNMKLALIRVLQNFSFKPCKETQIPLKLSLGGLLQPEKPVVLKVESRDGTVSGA
Protocol: (§1) A control reaction with no inhibitor was also prepared. After a suitable incubation at 37° C., the reactions were terminated by the addition of […] of 10% formic acid in water ([…] of acetonitrile for 2C19). […] Each assay was performed in duplicate.

CYP2D6 = CYP2D6 (Homo sapiens, UniProt P10635); experiment: in vitro; details: pH 7.4, probe dextromethorphan
CYP2D6, sequence (P10635 whole entry): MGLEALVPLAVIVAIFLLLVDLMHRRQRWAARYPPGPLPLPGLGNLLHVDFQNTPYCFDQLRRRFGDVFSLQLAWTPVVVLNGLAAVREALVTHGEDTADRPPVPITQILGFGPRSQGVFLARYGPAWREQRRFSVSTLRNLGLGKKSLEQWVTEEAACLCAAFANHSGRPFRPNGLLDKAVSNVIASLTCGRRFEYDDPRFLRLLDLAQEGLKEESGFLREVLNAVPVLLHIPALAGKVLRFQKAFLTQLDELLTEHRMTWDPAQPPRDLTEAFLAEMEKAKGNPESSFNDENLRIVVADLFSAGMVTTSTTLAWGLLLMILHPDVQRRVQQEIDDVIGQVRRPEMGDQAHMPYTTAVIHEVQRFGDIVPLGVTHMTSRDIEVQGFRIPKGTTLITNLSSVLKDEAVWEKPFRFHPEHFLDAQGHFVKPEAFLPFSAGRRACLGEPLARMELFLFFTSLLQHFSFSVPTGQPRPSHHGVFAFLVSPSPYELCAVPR
Protocol: as §1

CYP1A2 = CYP1A2 (Homo sapiens, UniProt P05177); experiment: in vitro; details: pH 7.4, probe phenacetin
CYP1A2, sequence (P05177 whole entry, species assumed): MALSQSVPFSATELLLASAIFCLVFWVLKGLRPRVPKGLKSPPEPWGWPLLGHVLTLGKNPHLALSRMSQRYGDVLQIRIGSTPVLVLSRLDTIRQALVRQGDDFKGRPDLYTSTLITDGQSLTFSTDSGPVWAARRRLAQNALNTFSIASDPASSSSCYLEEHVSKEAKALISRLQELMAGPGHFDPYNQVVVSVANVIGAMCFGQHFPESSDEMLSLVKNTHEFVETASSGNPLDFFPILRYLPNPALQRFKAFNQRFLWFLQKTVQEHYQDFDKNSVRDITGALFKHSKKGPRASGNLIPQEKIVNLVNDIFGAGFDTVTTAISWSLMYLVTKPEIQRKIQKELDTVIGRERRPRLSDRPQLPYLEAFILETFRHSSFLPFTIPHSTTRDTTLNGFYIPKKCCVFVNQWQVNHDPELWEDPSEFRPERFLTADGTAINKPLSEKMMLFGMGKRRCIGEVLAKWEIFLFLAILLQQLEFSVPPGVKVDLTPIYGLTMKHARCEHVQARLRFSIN
Protocol: as §1

HT29 cells = experiment: Clonogenic assay - oxygen dependence; details: Homo sapiens
CYP2C9 = CYP2C9 (Homo sapiens, UniProt P11712); experiment: Cytochrome P450 inhibition; details: pH 7.4
CYP2C9, sequence (P11712 whole entry): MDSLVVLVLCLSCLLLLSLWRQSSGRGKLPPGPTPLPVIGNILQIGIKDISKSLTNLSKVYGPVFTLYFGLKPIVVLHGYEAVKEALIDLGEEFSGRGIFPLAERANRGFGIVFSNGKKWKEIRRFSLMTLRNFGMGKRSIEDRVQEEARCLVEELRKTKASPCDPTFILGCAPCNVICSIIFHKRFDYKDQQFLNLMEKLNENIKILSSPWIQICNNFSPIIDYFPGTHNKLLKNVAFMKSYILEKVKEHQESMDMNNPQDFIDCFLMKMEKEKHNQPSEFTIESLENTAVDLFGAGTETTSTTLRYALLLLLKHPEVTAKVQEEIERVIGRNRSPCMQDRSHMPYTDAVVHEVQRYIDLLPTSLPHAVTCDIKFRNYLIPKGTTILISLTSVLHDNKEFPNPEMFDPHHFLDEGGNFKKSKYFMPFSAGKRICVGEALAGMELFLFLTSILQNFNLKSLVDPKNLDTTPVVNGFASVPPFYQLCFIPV
Protocol: as §1

[2] = target: CYP2C19 (printed CYPC219) (Homo sapiens, UniProt P33261); experiment: Cytochrome P450 inhibition; details: pH 7.4, probe (S)-mephenyloin
CYP2C19 (printed CYPC219), sequence (P33261 whole entry): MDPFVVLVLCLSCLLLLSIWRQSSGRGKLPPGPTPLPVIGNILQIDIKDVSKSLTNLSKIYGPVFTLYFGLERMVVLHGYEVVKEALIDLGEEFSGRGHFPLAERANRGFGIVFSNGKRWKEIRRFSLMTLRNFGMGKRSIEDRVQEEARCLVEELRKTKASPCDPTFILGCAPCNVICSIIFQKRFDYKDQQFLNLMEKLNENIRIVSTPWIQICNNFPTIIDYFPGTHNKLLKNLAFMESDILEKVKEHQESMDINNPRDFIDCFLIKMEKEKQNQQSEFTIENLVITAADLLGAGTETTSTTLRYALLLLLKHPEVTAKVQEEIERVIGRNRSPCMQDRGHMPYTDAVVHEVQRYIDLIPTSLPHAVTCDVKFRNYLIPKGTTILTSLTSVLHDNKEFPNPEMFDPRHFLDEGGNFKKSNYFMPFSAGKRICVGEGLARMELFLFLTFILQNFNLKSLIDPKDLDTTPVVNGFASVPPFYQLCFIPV
Protocol: as §1

HT29 xenograft = experiment: HT-29 xenograft mouse model with CDDP (Example 52); assay type: in vivo; details: for % Inhibition vs Group 1 / % Inhibition vs Group 2: tumor volumes at day 25; for % Inhibition vs Group 1: vs vehicle group, regimen per table
Protocol: Female CB17/SCID mice (purchased from Charles River, Cambridge, Mass.), 7-8 weeks of age, were allowed to acclimatize for at least three days, and handled under pathogen-free conditions. Human colon carcinoma cell line HT29 was obtained from the American Type Culture Collection. The cell lines were cultured and harvested as described in Example 47 and inoculated at 3×10^6 cells/animal in the peritoneal subcutaneous space. When the tumors grew to an average volume of 100 mm^3 (day 8), each group of mice (ten per group) was administered, for three weeks, as tabulated in the table below: Compound 25 in saline, administration route—i.p., administrated 2 h before CDDP on the days the combination therapy is scheduled and CDDP (in saline, IV).
The body weight and tumor volume were determined as described in Example 47. Data are based on tumor volumes at day 25 when tumors in the vehicle group had reached sufficient size to require that the mice be sacrificed.

[3] = system: mouse (MLM) liver microsomal proteins; assay type: in vitro ADME; details: Table 1, first study, 5 μM
PC3 cells = experiment: Clonogenic assay - oxygen dependence; details: Homo sapiens
AA8 = experiment: Clonogenic survival - DNA mutant repair cells; details: Cricetulus griseus
HT29 = experiment: Clonogenic assay, hypoxia vs normoxia (Table 1B); details: Homo sapiens, HT-29, read-out: HT29 C H (clonogenic IC90, hypoxia)
[4] = Group 7, Compound 25 i.p. in combination with CDDP IV
[5] = Group 8, Compound 25 i.p. in combination with CDDP IV
[6] = Group 9, Compound 25 i.p. in combination with CDDP IV
[7] = Group 10, Compound 25 i.p. in combination with CDDP IV

Structure (SMILES): Cn1c(COP(=O)(NCCBr)NCCBr)cnc1[N+](=O)[O-] [Compound 25]
- Cell cycle G0/G1 (H460 cells; 0.005 μM, Air): 38
- Cell cycle G2/M (H460 cells; 0.005 μM, Air): 42
- Cell cycle S (H460 cells; 0.005 μM, Air): 18
- Cell cycle G0/G1 (H460 cells; 0.005 μM, Nitrogen): 50
- Cell cycle G2/M (H460 cells; 0.005 μM, Nitrogen): 38
- Cell cycle S (H460 cells; 0.005 μM, Nitrogen): 12
- Cell cycle G0/G1 (H460 cells; 0.05 μM, Air): 58
- Cell cycle G2/M (H460 cells; 0.05 μM, Air): 28
- Cell cycle S (H460 cells; 0.05 μM, Air): 11
- Cell cycle G0/G1 (H460 cells; 0.05 μM, Nitrogen): 30
- Cell cycle G2/M (H460 cells; 0.05 μM, Nitrogen): 59
- Cell cycle S (H460 cells; 0.05 μM, Nitrogen): 7
- Cell cycle G0/G1 (H460 cells; 0.5 μM, Air): 58
- Cell cycle G2/M (H460 cells; 0.5 μM, Air): 28
- Cell cycle S (H460 cells; 0.5 μM, Air): 11
- Cell cycle G0/G1 (H460 cells; 0.5 μM, Nitrogen): 23
- Cell cycle G2/M (H460 cells; 0.5 μM, Nitrogen): 40
- Cell cycle S (H460 cells; 0.5 μM, Nitrogen): 31
- Cell cycle G0/G1 (H460 cells; 5 μM, Air): 42
- Cell cycle G2/M (H460 cells; 5 μM, Air): 59
- Cell cycle S (H460 cells; 5 μM, Air): 6
- Cell cycle G0/G1 (H460 cells; 5 μM, Nitrogen): 47
- Cell cycle G2/M (H460 cells; 5 μM, Nitrogen): 17
- Cell cycle S (H460 cells; 5 μM, Nitrogen): 15
- Cell cycle G0/G1 (H460 cells; 50 μM, Air): 14
- Cell cycle G2/M (H460 cells; 50 μM, Air): 65
- Cell cycle S (H460 cells; 50 μM, Air): 19
- Cell cycle G0/G1 (H460 cells; 50 μM, Nitrogen): 33
- Cell cycle G2/M (H460 cells; 50 μM, Nitrogen): 11
- Cell cycle S (H460 cells; 50 μM, Nitrogen): 14
- body weight (NCI H460 xenograft; 150 mg/kg once a week): Little change in body weight
- tumor growth during the two week period of dosing (NCI H460 xenograft; 150 mg/kg once a week for two weeks, i.p.): complete inhibition of tumor growth
- Metabolic stability (% at 30 min) RLM ([1]; Table 1, first study): 84%
- Metabolic stability (% at 30 min) RLM ([1]; Table 2A, second study): 137%
- IC50 (CYP3A4; pH 7.4, IC50 3A4 Midazolam, probe substrate midazolam): > 50 µM
- IC50 (CYP3A4; pH 7.4, IC50 3A4 Nifedipine, probe substrate nifedipine): > 50 µM
- IC50 (CYP3A4; pH 7.4, IC50 3A4 Testosterone, probe substrate testosterone): > 50 µM
- IC50 (CYP2D6): > 50 µM
- IC50 (CYP1A2): > 50 µM
- IC90 (HT29 cells; HT-29, read-out: IC90 HT29 0.6% O2): 3 µM
- IC90 (HT29 cells; HT-29, read-out: IC90 HT29 Air): 40 µM
- IC90 (HT29 cells; HT-29, read-out: IC90 HT29 N2): 0.2 µM
- IC50 (CYP2C9): ~10 µM
- IC50 [2]: > 50 µM
- % Inhibition vs Group 1 (HT29 xenograft; Group 3, Compound 25 in saline i.p.): 28.2%
- % Inhibition vs Group 1 (HT29 xenograft; Group 4, Compound 25 in saline i.p.): 30.1%
- % Inhibition vs Group 1 (HT29 xenograft; Group 5, Compound 25 in saline i.p.): 31.3%
- % Inhibition vs Group 1 (HT29 xenograft; Group 6, Compound 25 in saline i.p.): 48.1%
- % Inhibition vs Group 2 (HT29 xenograft; [4]): 30.8%
- % Inhibition vs Group 1 (HT29 xenograft; [4]): 50.7%
- % Inhibition vs Group 2 (HT29 xenograft; [5]): 27.5%
- % Inhibition vs Group 1 (HT29 xenograft; [5]): 44.2%
- % Inhibition vs Group 2 (HT29 xenograft; [6]): 21.5%
- % Inhibition vs Group 1 (HT29 xenograft; [6]): 36.2%
- % Inhibition vs Group 2 (HT29 xenograft; [7]): 33.2%
- % Inhibition vs Group 1 (HT29 xenograft; [7]): 51.8%
- tumor growth (HT29 xenograft; monotherapy 50 and 100 mg/kg/day, various regimens, saline): inhibition of tumor growth
- body weight (HT29 xenograft; more so in combination groups, recovered): modest body weight loss
- Metabolic stability (% at 30 min) MLM [3]: 89%
- IC90 (PC3 cells; PC-3, read-out: IC90 PC3 Air): 50 µM
- IC90 (PC3 cells; PC-3, read-out: IC90 PC3 N2): 0.3 µM
- IC90 (AA8; CHO-AA8, read-out: IC90 AA8 Air): > 300 µM
- IC90 (AA8; CHO-AA8, read-out: IC90 AA8 N2): 0.85 µM

Structure (SMILES): Cn1c(COP(=O)(NCCCl)NCCCl)cnc1[N+](=O)[O-] [Compound 36]
- IC90 (HT29): 3 µM
- MTD (in vivo): 400 mg/kg

— US8507464B2, “Phosphoramidate alkylator prodrugs” (Threshold Pharmaceuticals, Inc., priority 2005, dated 2013)
